The subject of one data set is MCF7. As to the kind of experiment: Antiproliferative activity against human MCF7 cells after 3 days by CellTiter-Glo luminescent cell viability assay. Type of data set: functional, cell-based. Background: Cellular ATP, detected with luciferase, serves as a proxy for viable cell number.
Data set [1] in a line: Clearance in Sprague-Dawley rat at 1 mg/kg, iv or 1 mg/kg, po. The class given is ADME, organism-based. The following applies: in vivo.
A short description of data set [2]: Oral bioavailability in Sprague-Dawley rat at 1 mg/kg. The class given is ADME, organism-based. The following applies: in vivo.
Data set [3] can be described thus: Octanol-buffer distribution coefficient, log D of the compound at pH 7.4. The class given is physicochemical.
The test system of data set [4] is Rattus norvegicus. In words: In vivo antagonist activity at estrogen receptor in Sprague-Dawley rat assessed as reduction in ethynylestradiol-stimulated increase in uterine wet weight at 0.1 mg/kg, po administered once daily via gavage for 3 days measured 24 hrs post last dose relative to control. Also noted: scale not given: the % may be the effect or the level left. The class given is functional.

Data set [5] relates to Rattus norvegicus. In words: In vivo antagonist activity at estrogen receptor in Sprague-Dawley rat assessed as reduction in ethynylestradiol-stimulated increase in uterine wet weight at 10 mg/kg, po administered once daily via gavage for 3 days measured 24 hrs post last dose relative to control. Type of data set: functional. Details: scale not given: the % may be the effect or the level left.

The subject of data set [6] is Rattus norvegicus. As to the kind of experiment: In vivo antagonist activity at estrogen receptor in Sprague-Dawley rat assessed as reduction in ethynylestradiol-stimulated increase in uterine wet weight administered once daily via oral gavage for 3 days measured 24 hrs post last dose. Type of data set: functional, organism-based.
A further data set has as its target T1, Estrogen receptor (Homo sapiens, UniProt P03372).
T1 sequence (P03372 whole entry): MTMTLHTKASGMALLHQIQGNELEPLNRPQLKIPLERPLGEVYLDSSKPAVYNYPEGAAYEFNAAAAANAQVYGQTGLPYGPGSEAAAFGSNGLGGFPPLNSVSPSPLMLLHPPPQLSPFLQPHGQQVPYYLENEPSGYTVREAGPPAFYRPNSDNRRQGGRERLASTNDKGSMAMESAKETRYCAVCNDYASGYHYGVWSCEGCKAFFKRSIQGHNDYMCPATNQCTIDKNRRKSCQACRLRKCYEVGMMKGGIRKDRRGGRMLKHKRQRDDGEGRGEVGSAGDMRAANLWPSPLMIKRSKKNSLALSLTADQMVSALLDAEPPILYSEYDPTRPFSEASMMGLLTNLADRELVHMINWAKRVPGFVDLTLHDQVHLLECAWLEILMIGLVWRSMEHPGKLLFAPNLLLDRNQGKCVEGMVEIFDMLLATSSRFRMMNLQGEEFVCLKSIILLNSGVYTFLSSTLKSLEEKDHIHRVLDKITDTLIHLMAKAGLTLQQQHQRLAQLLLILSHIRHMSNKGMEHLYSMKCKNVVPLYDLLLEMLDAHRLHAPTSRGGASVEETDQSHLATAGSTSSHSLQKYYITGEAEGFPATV

Data set [7] has as its system Rattus norvegicus. As to the kind of experiment: In vivo antagonist activity at estrogen receptor in Sprague-Dawley rat assessed as reduction in ethynylestradiol-stimulated increase in uterine wet weight at 60 mg/kg, po administered once daily via gavage for 3 days measured 24 hrs post last dose relative to control. Type of data set: functional. Details: scale not given: the % may be the effect or the level left.

In general, IC50 refers to the point on the concentration scale where inhibition reaches its midpoint. The term bioavailability denotes dose-corrected exposure relative to a reference, in per cent. A word on the logD: it is lipophilicity at a set pH, counting ionised and neutral species.

Description for Estrogen receptor: Induction of ERalpha degradation in human MCF7 cells after 4 hrs by Alexafluor-488 conjugate anti-mouse IgG antibody/Hoechst 33342 staining based immunofluorescence imaging analysis

Turning to `Oc1ccc2c(c1)O[C@@H](c1ccc(OCCN3CC(CF)C3)cc1)C1=C2CCOc2cc(O)ccc21`, the midpoint of inhibition in the data set on MCF7 (Homo sapiens, MCF7, 72 h), the IC50, lay at 0.4 nM. Moreover, the clearance in data set [1] was determined as 57 mL/min/kg. In data set [2], this compound came in with a bioavailability of 3.2%. The same compound registered a logD in data set [3] of 3. Further, the Activity was 17% in the data set on Rattus norvegicus [4], 87% in the data set with Rattus norvegicus [5] and “Dose-dependent effect” with Rattus norvegicus [6].
In turn, `CC1=C(c2cccc(O)c2)[C@H](c2ccc(OCCN3CC(CF)C3)cc2)Oc2ccc(O)cc21` showed an IC50 in the data set with MCF7 (Homo sapiens, MCF7, 72 h) of 0.2 nM. The compound further came in with a clearance in data set [1] of 85 mL/min/kg. The same compound came in with a bioavailability in data set [2] of 16%. In [3], this compound showed a logD of 2.9. Besides, the Activity with Rattus norvegicus [5] amounted to 105.7%.
Consider `C[C@@H](COc1ccc(C2Oc3cc(O)ccc3C3=C2c2ccc(O)cc2OCC3)cc1)N1CC[C@@H](CF)C1` (some centres not stated), for which inhibition in the data set with MCF7 (Homo sapiens, MCF7, 72 h) was half-maximal at 0.2 nM (IC50).
In turn, `Oc1ccc2c(c1)O[C@H](c1ccc(OCCN3CC(CF)C3)cc1)C1=C2CCOc2cc(O)ccc21` came in with an IC50 in the data set with MCF7 (Homo sapiens, MCF7, 72 h) of 0.9 nM. In data set [3], the logD was found to be 3.2.
In turn, `Oc1ccc2c(c1)OC(c1ccc(OCCN3CC[C@@H](CF)C3)cc1)C1=C2CCOc2cc(O)ccc21` (some centres not stated) gave an IC50 in the data set with MCF7 (Homo sapiens, MCF7, 72 h) of 0.3 nM.
As to `Oc1ccc2c(c1)OC(c1ccc(OCCN3CCCCC3)cc1)C1=C2CCOc2cc(O)ccc21` (racemic), the IC50 is 1.2 nM in the data set with MCF7 (Homo sapiens, MCF7, 72 h) and 0.28 nM against Estrogen receptor.
`Oc1ccc2c(c1)OC(c1ccc(OCCN3CC(CF)C3)cc1)C1=C2CCOc2cc(O)ccc21` (racemic) gave an IC50 with MCF7 (Homo sapiens, MCF7, 72 h) of 0.7 nM.
`Oc1ccc2c(c1)OCCC1=C2C(c2ccc(OCCN3CC(CF)C3)cc2)Oc2ccc(O)cc21` (stereo in doubt; 17a): the IC50 in the data set on MCF7 (mcf7) came out at 0.3 nM.
With `Oc1ccc2c(c1)OCCC1=C2C(c2ccc(OCCN3CC(CF)C3)cc2)Oc2ccc(O)cc21` (stereo in doubt; 17b), the IC50 in the data set on MCF7 (Homo sapiens, MCF7, 72 h) amounted to 0.6 nM. This compound also yielded a clearance in [1] of 237 mL/min/kg. In data set [3], this compound had a logD of 2.7.
As to `Oc1ccc2c(c1)OC(c1ccc(OCCN3CC(CF)C3)cc1)C1=C2CCOc2ccc(O)cc21` (stereo in doubt; 18a), the IC50 in the data set on MCF7 (mcf7) came to 5 nM; on Estrogen receptor, 0.61 nM.
The matching figures for `Oc1ccc2c(c1)OC(c1ccc(OCCN3CC(CF)C3)cc1)C1=C2CCOc2ccc(O)cc21` (stereo in doubt; 18b): 20 nM and 9.6 nM.
The matching figures for `Oc1ccc2c(c1)C1=C(c3cc(O)ccc3OCC1)C(c1ccc(OCCN3CC(CF)C3)cc1)O2` (stereo in doubt; 19a): 0.8 nM and 0.24 nM.
The corresponding values for `Oc1ccc2c(c1)C1=C(c3cc(O)ccc3OCC1)C(c1ccc(OCCN3CC(CF)C3)cc1)O2` (stereo in doubt; 19b) are 10 nM and 3.2 nM.
Take `CC/C(=C(\c1ccccc1)c1ccc(OCCN(C)C)cc1)c1ccccc1` [TAMOXIFEN]: the Activity in the data set with Rattus norvegicus [7] is listed as 36%.
